In article PMC3906059, “Activation and Inhibition of TMEM16A Calcium-Activated Chloride Channels” (PLoS ONE, 2014):
“Also recorded” adds a separate entry of the source. Read-outs that look alike come from different tables or passages of the source.

Columns and labels:
[1] = biological target: T1, TMEM16A (ANO1) (Mus musculus, UniProt Q8BHY3); test: Activation of ANO1 current by divalent cations, excised inside-out patch with fast solution exchange; type: cell-based
T1 construct: We subcloned the coding region of the cDNA into pEGFP-N3 vector; expressed in transfected cells; host or cells: HEK293 cells
T1 sequence (Q8BHY3 1-956 isoform Q8BHY3-2): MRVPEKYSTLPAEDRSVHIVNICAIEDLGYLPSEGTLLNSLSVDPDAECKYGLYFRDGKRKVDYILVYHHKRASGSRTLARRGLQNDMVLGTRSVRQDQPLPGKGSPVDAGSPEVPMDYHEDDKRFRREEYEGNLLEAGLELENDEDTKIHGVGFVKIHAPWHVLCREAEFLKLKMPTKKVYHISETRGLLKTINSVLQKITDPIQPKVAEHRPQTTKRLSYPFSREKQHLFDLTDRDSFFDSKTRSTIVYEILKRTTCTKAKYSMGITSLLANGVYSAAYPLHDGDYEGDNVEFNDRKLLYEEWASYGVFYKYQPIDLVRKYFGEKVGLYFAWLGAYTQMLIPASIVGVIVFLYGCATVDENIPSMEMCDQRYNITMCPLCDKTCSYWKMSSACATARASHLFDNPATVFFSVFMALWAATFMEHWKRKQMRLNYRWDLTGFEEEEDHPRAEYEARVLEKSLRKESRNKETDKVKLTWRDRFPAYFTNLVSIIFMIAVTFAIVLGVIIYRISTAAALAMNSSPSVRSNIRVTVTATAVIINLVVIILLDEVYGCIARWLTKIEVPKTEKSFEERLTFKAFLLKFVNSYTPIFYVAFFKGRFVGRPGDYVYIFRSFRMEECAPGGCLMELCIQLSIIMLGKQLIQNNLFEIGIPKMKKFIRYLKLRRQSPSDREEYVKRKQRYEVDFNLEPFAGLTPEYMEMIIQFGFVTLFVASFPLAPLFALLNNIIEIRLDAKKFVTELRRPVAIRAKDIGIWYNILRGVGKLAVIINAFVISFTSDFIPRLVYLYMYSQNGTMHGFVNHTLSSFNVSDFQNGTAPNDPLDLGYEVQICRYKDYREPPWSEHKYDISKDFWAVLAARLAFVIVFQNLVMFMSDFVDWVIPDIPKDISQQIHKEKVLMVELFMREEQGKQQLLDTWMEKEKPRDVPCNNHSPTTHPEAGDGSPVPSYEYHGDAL
Source text: (§1) The mouse TMEM16A cDNA (NCBI reference sequence: NM_001242349.1) encoding ANO1 CaCC was a generous gift from Dr. Lily Jan. We subcloned the coding region of the cDNA into pEGFP-N3 vector (Clontech Laboratories, Inc.), resulting in a construct in which an enhanced green fluorescent protein (eGFP) was attached to the C-terminus of the ANO1 protein. The sequence was confirmed by commercially-available DNA sequencing service. This eGFP-attached ANO1 cDNA construct was used for channel expression throughout the study. The cDNA was transfected into human embryonic kidney (HEK) 293 cells using lipofectamine transfection methods, [42], [43]. A fluorescent light source and a GFP filter set (Chroma Technology Co.) in the DM IRB inverted microscope (Leica Microsystems) were used to identify transfected cells expressing channel proteins. Electrophysiological experiments were performed ∼24 to 72 hours after transfection.
(§2) All chemicals were reagent grade. Regular salts (such as NaCl, NaOH, CaCl2, SrCl2, BaCl2, MgCl2 or sodium salts of various anions) were purchased from Fisher Chemicals (Fair Lawn, NJ), J. T. Baker (Phillipsburg, NJ) or Sigma Chemicals Co. (St. Louis, MO). EGTA, HEPES, and NFA were from Sigma Chemicals Co. Excised inside-out patch-clamp recordings were performed throughout the study. The extracellular (pipette) solution in all experiments contained: 140 mM NaCl, 10 mM HEPES, 0.1 mM EGTA, pH = 7.4. The regular intracellular solution contained 10 mM HEPES and 140 mM sodium salt of Cl^− or other anions. Various concentrations of divalent cations were made by adding certain total concentrations of divalent cations (Cl^− salts) into the solution containing a defined concentration of EGTA. We defined the pipette solution as the “zero-Ca^2+” solution. A solution containing a saturating [Ca^2+] was made by adding 0.12 mM total [Ca^2+] into the aforementioned zero-Ca^2+ solution, resulting in a solution containing ∼20 µM free [Ca^2+]. For making non-saturating [Ca^2+] solutions, the solutions included 1 mM EGTA. To make solutions containing Sr^2+ and Ba^2+, only 0.1 mM EGTA was used. The pH of all solutions was adjusted to 7.4.
Because of weak Mg^2+-EGTA binding, we referred the total [Mg^2+] as the free [Mg^2+]. The free [Ca^2+], [Sr^2+], and [Ba^2+] were calculated using the MaxChelator program (Ver1.2) kindly provided by Chris Patton from the Stanford University. This program was developed based on the binding constants available in the National Institute of Standard and Technology (NIST) between EGTA and these three divalent cations. Table S1, Table S2, and Table S3 list respectively the calculated free [Ca^2+], [Sr^2+], and [Ba^2+] used in this study. All added divalent cations were Cl^− salts. […] For example, in a solution containing 5 mM, 10 mM or 30 mM MgCl2, only 130 mM, 120 mM or 80 mM of NaCl, respectively, were added to the solution.
The patch-clamp recording pipettes were fabricated from borosilicate glass capillaries (World Precision Instruments) using PP830 electrode puller (Narishige International). When filled with the pipette solution, the electrode resistance was ∼1.5–3 MΩ. The experiments were carried out at room temperature (20–23°C) using the Axopatch 200B amplifier controlled by the Digidata I/O converter and the pClamp9 software (Axon Instruments/Molecular Devices).
Solution exchange was achieved using the SF-77 solution exchanger (Warner Instruments). After the excised inside-out patch mode was established, the tip of the patch pipette was positioned at the exit of the solution-delivery pipes of the SF-77 solution exchanger. The switch of solution pipes was controlled by a digital signal delivered from the Digidata 1320 digitizing board. […]

[2] = biological target: T1, TMEM16A (ANO1); test: Mg^2+ inhibition of Ca^2+-induced ANO1 current and shift of the Ca^2+-activation curve (Schild plot); type: cell-based
Source text: as §1
All chemicals were reagent grade. Regular salts (such as NaCl, NaOH, CaCl2, SrCl2, BaCl2, MgCl2 or sodium salts of various anions) were purchased from Fisher Chemicals (Fair Lawn, NJ), J. T. Baker (Phillipsburg, NJ) or Sigma Chemicals Co. (St. Louis, MO). EGTA, HEPES, and NFA were from Sigma Chemicals Co. Excised inside-out patch-clamp recordings were performed throughout the study. The extracellular (pipette) solution in all experiments contained: 140 mM NaCl, 10 mM HEPES, 0.1 mM EGTA, pH = 7.4. The regular intracellular solution contained 10 mM HEPES and 140 mM sodium salt of Cl^− or other anions. Various concentrations of divalent cations were made by adding certain total concentrations of divalent cations (Cl^− salts) into the solution containing a defined concentration of EGTA. We defined the pipette solution as the “zero-Ca^2+” solution. A solution containing a saturating [Ca^2+] was made by adding 0.12 mM total [Ca^2+] into the aforementioned zero-Ca^2+ solution, resulting in a solution containing ∼20 µM free [Ca^2+]. For making non-saturating [Ca^2+] solutions, the solutions included 1 mM EGTA. […]
Because of weak Mg^2+-EGTA binding, we referred the total [Mg^2+] as the free [Mg^2+]. The free [Ca^2+], [Sr^2+], and [Ba^2+] were calculated using the MaxChelator program (Ver1.2) kindly provided by Chris Patton from the Stanford University. […] Table S1, Table S2, and Table S3 list respectively the calculated free [Ca^2+], [Sr^2+], and [Ba^2+] used in this study. […]
Solution exchange was achieved using the SF-77 solution exchanger (Warner Instruments). […] The recorded current is normally time-independent following fast solution exchange, but on infrequent occasions there is a slow increase of current. Therefore, we measured the current amplitude at the end of the solution exchange when the current amplitude reaches a steady-state maximal value. […]

[3] = test system: TMEM16A; details: cited from earlier work
[4] = test system: CaCC of Xenopus oocytes; set-up: method as in PMID 11279188; details: cited from earlier work
[5] = biological target: T1, TMEM16A (ANO1); test: NFA inhibition of ANO1 current, intracellular application to inside-out patch; type: cell-based
Source text: as §1, §2
The inhibition of ANO1 by intracellular NFA was achieved by directly applying NFA to the intracellular side of the membrane patch using fast-solution exchange. Except where indicated, the ANO1 current was induced by saturating [Ca^2+] followed by the application of various [NFA] in the solution containing the same [Ca^2+]. The steady-state current (I) at the end of NFA application was divided by the current in the absence of NFA (I0) before and after the drug application to obtain the percentage of current remained in the presence of NFA.
For dose-response inhibition by NFA, the current (I) measured at the end of the NFA application was normalized to the current amplitude in the absence of NFA (I0). The ratio I/I0 was then plotted against [NFA], and the concentration-dependent inhibition curve was fitted to a Langmuir function (eq. 2), I/I0 = 1/(1+ [NFA]/K1/2), where K1/2 is the half-inhibition [NFA].
For comparing two treatments that might differentially affect the apparent affinity of the NFA inhibition (for example, Fig. 8 C & D), the summation of the residual error (namely, the residual sum of squares of the error) from the curve fitting of each treatment was compared to the residual error from the curve fitting of the pooled data. If the former was statistically smaller than the latter using F test, the two regression curves would be considered different. The statistically significant level (α) was set at 0.05.

[6] = biological target: T1, TMEM16A (ANO1); test: as above; type: cell-based; remark: listed apart in the source
[7] = Schild plot from K1/2,Ca in 0, 2, 5 and 10 mM Mg^2+

Compound: [Mg+2] [Mg^2+]
- ANO1 activation by Mg^2+ ([1]; up to 30 mM [Mg^2+], intracellular side): no ANO1 activation was detected; also recorded: unable to detect ANO1 current
- IC50 ([2]; ANO1 current induced by 0.666 µM free Ca^2+, fit to eq. 2, read-out: apparent half-inhibition concentration): 5400 µM
- [Mg^2+] that increases K1/2,Ca 2-fold (Schild plot) [2, 7]: ~2.5 mM
- pMg at crossing of the horizontal axis of the Schild plot [2, 7]: ~2.6
- Mg^2+ inhibition of ANO1 current activated by saturating [Ca^2+] ([2]; saturating [Ca^2+], 5 mM Mg^2+ (Fig. 4 C)): not observed; also recorded: not inhibited

Compound: [Ca+2] [Ca^2+]
- difference of K1/2,Ca between +40 mV and −40 mV [1]: 100 nM
- fraction of saturated current activated ([1]; 666 nM [Ca^2+], ±40 mV, in the presence or absence of 20 µM NFA): ~90%
- EC50 ([1]; +40 mV, fit to Hill equation (eq. 1), normalized to Is induced by 20 µM free Ca^2+, read-out: half-activation [Ca^2+] (K1/2,Ca)): 0.466 µM
- maximal ANO1 current activated by saturating divalent cation compared with Is induced by saturating [Ca^2+] ([1]; Is induced by 20 µM Ca^2+, ±40 mV): activated the channel to the same maximal current level
- Hill coefficient (n) of dose-response activation curve ([1]; values covering +40 and −40 mV): ~4
- EC50 ([1]; values covering +40 and −40 mV, read-out: K1/2 of ANO1 activation): ~0.5 µM
- EC50 ([3]; +80 mV, read-out: K1/2,Ca): 0.063 µM
- EC50 ([3]; −60 mV, lower end of literature range, read-out: half-effective concentration of Ca^2+ (K1/2,Ca)): < 0.1 µM
- EC50 ([3]; −60 mV, upper end of literature range, read-out: half-effective concentration of Ca^2+ (K1/2,Ca)): > 2 µM

Compound: O=C(O)c1cccnc1Nc1cccc(C(F)(F)F)c1 [NFA, niflumic acid]
- sideness of the block [4]: from intracellular and extracellular sides with similar affinities
- effect of NFA on sensitivity of ANO1 to Ca^2+ activation ([5]; 20 µM NFA, current induced by 666 nM Ca^2+ at ±40 mV): not reduced
- IC50 ([5]; 140 mM intracellular NaBr, pipette 140 mM Cl^−, read-out: K1/2 of NFA inhibition): 39.2 ± 1.1 µM
- IC50 ([5]; 140 mM intracellular NaCl, pipette 140 mM Cl^−, read-out: K1/2 of NFA inhibition): 17.9 ± 1.1 µM
- IC50 ([5]; 140 mM intracellular NaI, pipette 140 mM Cl^−, read-out: K1/2 of NFA inhibition): 85.5 ± 3.6 µM
- IC50 ([5]; 140 mM intracellular NaNO3, pipette 140 mM Cl^−, read-out: K1/2 of NFA inhibition): 54.8 ± 3.4 µM
- IC50 ([5]; 140 mM intracellular NaSCN, pipette 140 mM Cl^−, read-out: K1/2 of NFA inhibition): 189 ± 7.4 µM
- voltage dependence of K1/2 of NFA inhibition ([5]; between −40 mV and +40 mV): not voltage dependent
- IC50 ([5]; current activated by 404 µM [Ba^2+], Vm = −20 mV, read-out: K1/2 of NFA inhibition): 22.6 µM
- IC50 ([5]; current induced by 20 µM Ca^2+, −40, −20, +20, +40 mV, read-out: half-blocking concentration (K1/2) of NFA): 18 to 20 µM
- IC50 ([5]; symmetrical 140 mM NaCl, −40 mV, read-out: K1/2 of NFA inhibition): 18.4 µM
- IC50 ([6]; symmetrical 4 mM NaCl (136 mM Na-Glutamate added), −40 mV, read-out: K1/2 of NFA inhibition): 7.9 µM
- increase of apparent affinity of NFA inhibition in 4 mM [Cl^−] compared with 140 mM [Cl^−] ([6]; symmetrical solutions): more than 2 fold
